Results taken from BindingDB's records for doi:10.1021/cb400075f (Boehringer Ingelheim (Canada), 2013).

What was measured:
[1] = target: T1, Gag-Pol polyprotein (Human immunodeficiency virus type 1 group M subtype B (isolate NY5), UniProt P12497); experiment: Capsid Assembly Assay
From the text: In vitro capsid assembly assay (CAA) was used in a HTS to identify potential inhibitors of capsid assembly.

[2] = target: T1, Gag-Pol polyprotein; experiment: Capsid Assembly Assay; remark: listed apart in the source

Row | SMILES | IC50 [1] | Kd [2]
1 | O=C(O)c1ccc(-c2ccc3c(c2)nc(-c2c[nH]nc2-c2cccc(Cl)c2)n3CCCn2ccnc2)cc1 [Benzimidazole Inhibitor, 4] | 1200 nM | 
2 | CN(C)CCCn1c(-c2c[nH]nc2-c2ccc(C(F)(F)F)cc2)nc2cc(-c3ccc(C(=O)O)cc3)ccc21 [Benzimidazole Inhibitor, 2] | 1200 nM | 4300 nM
3 | O=C(O)c1ccc(-c2ccc3c(c2)nc(-c2c[nH]nc2-c2ccc(Cl)c(Cl)c2)n3CCCNC2CCCCC2)cc1 [Benzimidazole Inhibitor, 6] | 350 nM | 500 nM
4 | O=C(O)c1ccc(-c2ccc3c(c2)nc(-c2c[nH]nc2-c2ccc(C(F)(F)F)cc2)n3CCCn2ccnc2)cc1 [Benzimidazole Inhibitor, 3] | 1400 nM | 8000 nM
5 | CN(C)CCCn1c(-c2c[nH]nc2-c2ccccc2)nc2cc(-c3ccc(C(=O)O)cc3)ccc21 [Benzimidazole Inhibitor, 1] | 6100 nM | 43000 nM
6 | COCCN=CC1C(=O)N(C)c2ccc(C(F)(F)F)cc2N(c2ccccc2)C1=O (stereo unspecified) [Benzodiazepine Inhibitor, 7] | 890 nM | 
7 | O=C(O)c1ccc(-c2ccc3c(c2)nc(-c2c[nH]nc2-c2ccc(C(F)(F)F)cc2)n3CCCN2CCCCC2)cc1 [Benzimidazole Inhibitor, 5] | 670 nM | 
